Experimental data from the NIST ThermoML archive (doi:10.1016/j.jct.2016.07.012).
Numbers after ± are expanded uncertainties.

Conditions: Crystal; Adiabatic calorimetry

Triple point temperature: 283.55 ± 0.05 K
SMILES: CCCCn1cc[n+](C)c1.F[P-](F)(F)(F)(F)F [1-butyl-3-methylimidazolium hexafluorophosphate]
